Data: paper PMC10014601, “The cyclic peptide G4CP2 enables the modulation of galactose metabolism in yeast by interfering with GAL4 transcriptional activity” (Frontiers in Molecular Biosciences, 2023)
Read-outs that look alike come from different tables or passages of the source. Where a SMILES comes first, the peptide text is derived from it. [ ]: non-standard residue; d: D form. βAla = NCCC(=O)O

How the values were obtained:
[1] = PAMPA-BBB passive membrane permeability; conditions: for Papp at 18 h / Papp: pH 7.4
Protocol: A 96-well acceptor microplate (PTFE, Millipore) was prepared by filled each well with 300 μL of PBS/DMSO (95:5, pH = 7.4), while the donor microplate artificial membrane (PVDF membrane, pore size […], Millipore) was carefully coated with 5 μL of PBL dissolved in dodecane ([…]). Each compound was dissolved in DMSO, diluted with PBS/DMSO (95:5, pH = 7.4) to a final concentration of 40–100 μM in the donor well, filtered with a Millex filter, and applied to the donor microplate wells (200 μL). Next, the donor plate was carefully placed on top of the acceptor plate, thereby bringing the artificial membrane in contact with the buffer solution underneath. The donor well was covered with a lid, and the whole system was left undisturbed overnight (18 h) at 25°C in a container sealed with damp paper towels to prevent evaporation. After incubation, the donor microplate was carefully removed, and UV-vis spectroscopy was used to determine the amounts of the tested compounds in the acceptor and donor microplate wells, respectively. Each sample was evaluated at five wavelengths in four wells during three separate runs; accordingly, all data are presented as mean values with relevant standard deviation. The permeability values (Pe,exp, cm/s) were calculated according to the following expression: Pe,exp = {−VdVa/[(Vd + Va)At]ln–1—da/deq}, in which Vd and Va represent the volumes of the donor and the acceptor wells, respectively, A is the surface of the artificial membrane, t is the permeation time, whilst da and deq are the absorbance measured in the acceptor well and the theoretical equilibrium absorbance value, respectively. After the PAMPA-BBB test for all compounds was completed, the integrity of the lipid membrane was evaluated based on the transport of Lucifer Yellow (Sigma-Aldrich)—a fluorescent molecule with very limited membrane permeability rejected by a uniform and integral lipid membrane performed according to the Millipore protocol lit. n. PC1545EN00 (https://www.sigmaaldrich.com/technical-documents/protocols/biology/membrane-integrity-test-for-lipid-pampa-artificial-membranes.html).

[2] = target: T1, GAL4 (Saccharomyces cerevisiae, UniProt P04386); assay: pGAL1::YFP reporter fluorescence (YFP/OD600), BY4741 treated with chemically synthesized peptides (feeding); type: cell-based; conditions: 100 µM peptide; 1.00 and 10.00 Gal/Glu ratios; 15.5 h
T1 construct: endogenous in cells; host or cells: S. cerevisiae BY4741 (S288C derivative) with integrated GAL1p-YFP cassette
Protocol: The fluorescence signal of BY4741 pGAL1::YFP reporter strain was measured using a Varioskan LUX multimode microplate reader (ThermoFisher Scientific). Overnight cultures were pelleted, washed twice in water and OD600 normalized for the different cultures. An equal volume of normalized cultures was pipetted in each well of a 96-well plate containing different galactose/glucose (Gal/Glu) ratios. When treating the cells with chemically synthesized G4CP2, a 10 mM stock solution (100% DMSO) was diluted to a working concentration of 100 µM in each well designated for treatment. Fluorescence and OD600 measurements were performed by incubating plates at 28°C, shaking 2 min at 180 rpm, before each measurement.
To test the effects of exogenous administration of chemically synthetized G4CP2 on pGAL1::YFP biosensor, a random-selected control peptide (CP11) was used. […] G4CP2 and CP11 were used at 100 µM to treat BY4741 pGAL1::YFP yeast cells grown in 96-well plates under 1.00 and 10.00 Gal/Glu ratios. YFP/OD600 values were again recorded for 15.5 h (Figure 4D).

[3] = PAMPA-BBB literature value, cited from earlier work
From the text: Supplement Table3.XLSX, sheet "Primer list" | column: Pe,lit

[4] = marked a (or a,b; then also Kerns et al., 2004), ref Di et al., 2003
[5] = marked b, ref Kerns et al., 2004

Compound: CCn1cc(C(=O)O)c(=O)c2cc(F)c(N3CCNCC3)nc21 [Enoxacin]
- Papp at 18 h ([1]; pig, PAMPA): 0.98 ± 0.3 ×10⁻⁶ cm/s

Compound: CC(C)NCC(O)COc1ccc(CC(N)=O)cc1 (stereo not shown) [Atenolol]
- Papp at 18 h ([1]; pig, PAMPA): 0.74 ± 0.04 ×10⁻⁶ cm/s

Compound: CN1C(=O)CN=C(c2ccccc2)c2cc(Cl)ccc21 [Diazepam]
- Papp ([1]; pig, PAMPA): 13.7 ± 0.8 ×10⁻⁶ cm/s

Compound: CCN(CC)CCCC(C)Nc1ccnc2cc(Cl)ccc12 (stereo not shown) [Chloroquine]
- Papp at 18 h ([1]; pig, PAMPA): 2.4 ± 0.1 ×10⁻⁶ cm/s

Compound: CSCC[C@@H]1NC(=O)[C@H](CC(=O)O)NC(=O)[C@H](Cc2ccccc2)NC(=O)[C@H](Cc2ccccc2)NC(=O)[C@H](Cc2ccc(O)cc2)NC(=O)[C@H](CCCNC(=N)N)NC(=O)CCNC(=O)[C@H](Cc2ccc(O)cc2)NC(=O)[C@H](Cc2c[nH]c3ccccc23)NC1=O [G4CP2] (cyclo(DMWY[βAla]RYFF))
- passive permeability classification ([1]; PAMPA): moderate-to-good
- Papp ([1]; PAMPA): 3.3 ± 0.4 ×10⁻⁶ cm/s
- YFP fluorescence signal over time (YFP/OD600) [2]: strongly attenuated

Compound: CCn1cc(C(=O)O)c(=O)c2cc(F)c(N3CCNC(C)C3)c(F)c21 (stereo not shown) [Lomefloxacin]
- Papp at 18 h ([1]; pig, PAMPA): 1.4 ± 0.1 ×10⁻⁶ cm/s

Compound: CC(=O)[C@H]1CC[C@H]2[C@@H]3CCC4=CC(=O)CC[C@]4(C)[C@H]3CC[C@]12C [Progesterone]
- Papp at 18 h ([1]; pig, PAMPA): 10.9 ± 0.7 ×10⁻⁶ cm/s

Compound: CN1C(C(=O)Nc2ccccn2)=C(O)c2ccccc2S1(=O)=O [Piroxicam]
- Pe,lit [3, 4]: 2.5a 10-6 cm/s

Compound: OCCN(CCO)c1nc(N2CCCCC2)c2nc(N(CCO)CCO)nc(N3CCCCC3)c2n1 [Dipyridamole]
- Papp at 18 h ([1]; pig, PAMPA): 3.8 ± 0.4 ×10⁻⁶ cm/s
- Pe,lit [3, 5]: 3.5b 10-6 cm/s

Compound: C/C=C/C[C@@H](C)[C@@H](O)[C@H]1C(=O)N[C@@H](C(C)C)C(=O)N(C)CC(=O)N(C)[C@@H](CC(C)C)C(=O)N[C@@H](C(C)C)C(=O)N(C)[C@@H](CC(C)C)C(=O)N[C@@H](C)C(=O)N[C@H](C)C(=O)N(C)[C@@H](CC(C)C)C(=O)N(C)[C@@H](CC(C)C)C(=O)N(C)[C@@H](C(C)C)C(=O)N1C [CSD]
- Papp ([1]; PAMPA): 0.93 ± 0.5 ×10⁻⁶ cm/s

Compound: CN(C)CCCN1c2ccccc2Sc2ccc(Cl)cc21 [Chlorpromazine]
- Papp at 18 h ([1]; pig, PAMPA): 6.8 ± 0.3 ×10⁻⁶ cm/s

Compound: COc1cc(Cc2cnc(N)nc2N)cc(OC)c1OC [Trimethoprim]
- Papp at 18 h ([1]; pig, PAMPA): 2.5 ± 0.2 ×10⁻⁶ cm/s
- Pe,lit [3, 5]: 2.2b 10-6 cm/s

Compound: CCn1cc(C(=O)O)c(=O)c2cc(F)c(N3CCNCC3)cc21 [Norfloxacin]
- Papp at 18 h ([1]; pig, PAMPA): 0.15 ± 0.01 ×10⁻⁶ cm/s

Compound: CC(C)[C@H]1C(=O)O[C@H](C(C)C)C(=O)N(C)[C@@H](C(C)C)C(=O)O[C@H](C(C)C)C(=O)N(C)[C@@H](C(C)C)C(=O)O[C@H](C(C)C)C(=O)N1C [EnB]
- Papp at 18 h ([1]; PAMPA): 8.3 ± 0.7 ×10⁻⁶ cm/s

Compound: Cn1c(=O)c2c(ncn2C)n(C)c1=O [Caffeine]
- Pe,exp ([1]; PAMPA-BBB validation, porcine brain lipid in dodecane (20 mg/L), PBS/DMSO 95:5 pH 7.4, 40–100 μM donor, 18 h, 25°C, UV-vis, mean ± SD, four wells, three runs): 1.7 ± 0.2 10-6 cm/s

Compound: O=C1Nc2ccc(Cl)cc2C(c2ccccc2)=NC1O (stereo not shown) [Oxazepam]
- Pe,lit [3, 4]: 10a 10-6 cm/s

Compound: Cc1nnc2n1-c1ccc(Cl)cc1C(c1ccccc1)=NC2 [Alprazolam]
- Papp ([1]; pig, PAMPA): 5.1 ± 0.4 ×10⁻⁶ cm/s
- Pe,lit [3, 4]: 5.4a 10-6 cm/s
